pIC50: −log10 of the molar value. Where two headings read alike, the source gives them in different places.
Assays:
[1] = biological target: T1, ALK (Homo sapiens, UniProt Q9UM73); assay: ALK Kinase Assay (ELISA/TRF, PLC-γ substrate); assay type: biochemical; details: read-out: ALK Potency
T1 construct: host or cells: baculovirus expression system
Outline: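 PLC-γ coat 10 μg/mL in TBS; ALK 30 ng/ml added to start; 37° C, 15 min; Eu-N1 PT66 antibody detection (TRF). IC50: % inhibition vs log10 [cpd], variable-slope sigmoidal fit.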

[2] = biological target: T2, JAK2 (Homo sapiens, UniProt O60674); assay: Recombinant Human JAK2 Kinase Assay (TRF); assay type: biochemical; details: read-out: JAK2 Potency
T2 construct: host or cells: baculovirus expression system
Outline: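 Baculovirus-expressed JAK2 (15 ng/ml) phosphorylated a biotinylated 15-mer peptide captured on Neutravidin-coated plates, in 20 mM HEPES pH 7.2 with 0.2 μM ATP, 1 mM MnCl2, 0.1% BSA and 2.5% DMSO. Reaction ran 20 min at room temperature; phosphopeptide was detected by time-resolved fluorescence with Eu-N1-labelled PY100 antibody.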

[3] = ALK kinase inhibition, 1 μM ATP
[4] = JAK2 kinase inhibition, 0.2 μM ATP

T1 sequence (Q9UM73 19-1620): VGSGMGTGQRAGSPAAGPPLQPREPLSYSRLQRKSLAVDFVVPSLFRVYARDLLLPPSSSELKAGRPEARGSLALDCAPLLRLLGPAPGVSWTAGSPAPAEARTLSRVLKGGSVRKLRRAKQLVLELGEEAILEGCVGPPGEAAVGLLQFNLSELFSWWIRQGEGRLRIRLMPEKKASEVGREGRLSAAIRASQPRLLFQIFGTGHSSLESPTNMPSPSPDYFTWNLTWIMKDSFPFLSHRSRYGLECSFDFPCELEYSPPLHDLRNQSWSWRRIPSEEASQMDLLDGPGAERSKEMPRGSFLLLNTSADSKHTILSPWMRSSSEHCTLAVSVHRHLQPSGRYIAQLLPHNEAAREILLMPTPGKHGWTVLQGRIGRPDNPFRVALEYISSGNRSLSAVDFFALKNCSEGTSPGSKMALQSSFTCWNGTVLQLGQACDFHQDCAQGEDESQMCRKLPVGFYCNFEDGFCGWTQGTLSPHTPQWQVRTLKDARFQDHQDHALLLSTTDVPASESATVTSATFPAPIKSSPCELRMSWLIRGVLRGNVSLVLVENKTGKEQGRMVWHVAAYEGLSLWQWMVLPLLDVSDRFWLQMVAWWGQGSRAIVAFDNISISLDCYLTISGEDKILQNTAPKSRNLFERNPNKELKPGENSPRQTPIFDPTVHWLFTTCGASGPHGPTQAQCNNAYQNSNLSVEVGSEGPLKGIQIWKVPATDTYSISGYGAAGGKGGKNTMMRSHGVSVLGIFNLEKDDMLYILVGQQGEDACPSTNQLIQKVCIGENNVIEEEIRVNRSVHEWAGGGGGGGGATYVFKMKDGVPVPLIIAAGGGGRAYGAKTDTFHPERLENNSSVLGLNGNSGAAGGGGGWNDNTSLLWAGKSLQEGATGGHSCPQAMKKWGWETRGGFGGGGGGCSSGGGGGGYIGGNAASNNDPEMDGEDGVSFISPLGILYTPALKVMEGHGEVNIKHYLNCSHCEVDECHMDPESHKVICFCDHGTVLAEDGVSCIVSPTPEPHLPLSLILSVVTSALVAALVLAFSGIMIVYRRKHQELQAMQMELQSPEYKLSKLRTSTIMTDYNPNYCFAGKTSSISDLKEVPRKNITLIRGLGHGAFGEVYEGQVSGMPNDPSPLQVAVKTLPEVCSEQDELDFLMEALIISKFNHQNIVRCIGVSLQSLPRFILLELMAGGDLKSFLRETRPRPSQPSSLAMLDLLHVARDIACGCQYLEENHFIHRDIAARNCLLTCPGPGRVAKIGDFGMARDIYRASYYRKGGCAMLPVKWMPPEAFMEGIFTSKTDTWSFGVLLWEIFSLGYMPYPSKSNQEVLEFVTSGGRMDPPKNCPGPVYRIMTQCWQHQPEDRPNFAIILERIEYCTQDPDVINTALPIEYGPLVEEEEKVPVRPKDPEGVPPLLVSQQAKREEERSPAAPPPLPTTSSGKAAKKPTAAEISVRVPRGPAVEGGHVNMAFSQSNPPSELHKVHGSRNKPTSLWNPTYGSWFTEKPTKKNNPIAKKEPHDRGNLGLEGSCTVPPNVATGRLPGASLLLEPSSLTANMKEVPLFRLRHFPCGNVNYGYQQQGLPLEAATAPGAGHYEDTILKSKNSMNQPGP
T2 sequence (O60674 whole entry): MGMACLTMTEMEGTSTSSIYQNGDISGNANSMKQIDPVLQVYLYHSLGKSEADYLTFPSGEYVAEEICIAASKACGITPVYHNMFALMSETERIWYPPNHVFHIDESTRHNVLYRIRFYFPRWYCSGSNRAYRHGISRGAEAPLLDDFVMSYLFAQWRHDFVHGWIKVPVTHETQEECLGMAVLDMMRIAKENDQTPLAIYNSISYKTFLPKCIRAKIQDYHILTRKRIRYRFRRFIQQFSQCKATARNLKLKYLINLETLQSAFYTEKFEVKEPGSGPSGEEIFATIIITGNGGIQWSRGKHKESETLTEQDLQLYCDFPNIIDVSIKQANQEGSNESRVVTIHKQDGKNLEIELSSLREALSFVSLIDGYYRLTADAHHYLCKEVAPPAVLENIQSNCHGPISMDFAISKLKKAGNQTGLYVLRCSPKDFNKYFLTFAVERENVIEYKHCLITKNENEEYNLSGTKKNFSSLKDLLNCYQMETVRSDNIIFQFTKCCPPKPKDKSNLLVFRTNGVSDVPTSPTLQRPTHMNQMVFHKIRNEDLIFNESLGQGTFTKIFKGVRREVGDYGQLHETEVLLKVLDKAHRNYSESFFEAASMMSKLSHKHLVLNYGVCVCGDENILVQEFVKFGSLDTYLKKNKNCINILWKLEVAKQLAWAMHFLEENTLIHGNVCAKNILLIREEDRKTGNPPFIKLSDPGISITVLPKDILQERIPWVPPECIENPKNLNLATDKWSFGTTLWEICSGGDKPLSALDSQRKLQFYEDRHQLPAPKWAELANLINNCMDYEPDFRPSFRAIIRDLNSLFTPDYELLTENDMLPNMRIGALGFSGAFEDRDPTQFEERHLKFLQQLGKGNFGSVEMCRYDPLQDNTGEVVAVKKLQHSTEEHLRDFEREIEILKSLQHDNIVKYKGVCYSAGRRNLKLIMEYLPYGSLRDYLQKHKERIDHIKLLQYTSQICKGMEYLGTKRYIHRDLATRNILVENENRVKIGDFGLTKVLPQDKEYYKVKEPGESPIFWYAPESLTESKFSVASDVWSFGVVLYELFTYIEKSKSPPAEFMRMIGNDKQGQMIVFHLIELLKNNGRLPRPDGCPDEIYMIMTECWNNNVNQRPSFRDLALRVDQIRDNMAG

Row | SMILES | pIC50 ([1]; ALK Kinase Inhibition) | pIC50 ([2]; JAK2 Kinase Inhibition) | pIC50 [1, 3] | pIC50 [2, 4]
1 | NC(=O)c1cccc(Nc2ncc3ccc(-c4cccc(Cl)c4)n3n2)c1 [Example 165, 3-[7-(3-Chloro-phenyl)-pyrrolo[2,1-f][1,2,4]triazin-2-ylamino]-benzamide] | 5.00 to 6.00 | > 7.00 | – | –
2 | CS(=O)(=O)Nc1cccc(-c2ccc3cnc(Nc4ccc(N5CCOCC5)cc4)nn23)c1 [Example 201, N-{3-[2-(4-Morpholin-4-yl-phenylamino)-pyrrolo[2,1-f][1,2,4]triazin-7-yl]-phenyl}-methanesulfonamide] | 6.00 to 7.00 | > 7.00 | – | –
3 | COc1ccccc1-c1ccc2cnc(Nc3ccc(C4C(=O)N(C)CCN4C)cc3)nn12 (stereo not shown) [Example 1076, 3-{4-[7-(2-Methoxy-phenyl)-pyrrolo[2,1-f][1,2,4]triazin-2-ylamino]-phenyl}-1,4-dimethyl-piperazin-2-one] | – | – | 5.00 to 6.00 | > 7.00
4 | COc1ccc(OC)c(-c2ccc3cnc(Nc4ccc(N5CCN(C[C@H](C)O)CC5)cc4OC)nn23)c1 [Example 1477, (S)-1-(4-{4-[7-(2,5-Dimethoxy-phenyl)-pyrrolo[2,1-f][1,2,4]triazin-2-ylamino]-3-methoxy-phenyl}-piperazin-1-yl)-propan-2-ol] | > 7.00 | 5.00 to 6.00 | – | –
5 | COc1ccccc1-c1ccc2cnc(-c3nnn[nH]3)nn12 [Example 1502, 7-(2-Methoxy-phenyl)-2-(1H-tetrazol-5-yl)-pyrrolo[2,1-f][1,2,4]triazine] | < 5.00 | < 5.00 | – | –
6 | COc1cc2c(cc1Nc1ncc3ccc(-c4cccc5c4OCC5)n3n1)CCN(C[C@@H](C)O)CC2 [Example 522, (R)-1-{7-[7-(2,3-Dihydro-benzofuran-7-yl)-pyrrolo[2,1-f]triazin-2-ylamino]-8-methoxy-1,2,4,5-tetrahydro-benzo[d]azepin-3-yl}-propan-2-ol] | – | – | > 7.00 | 6.00 to 7.00
7 | NC(=O)CN1CCC(c2ccc(Nc3ncc4ccc(-c5cccc(S(=O)(=O)N6CCCC6)c5)n4n3)cc2)CC1 [Example 928, 2-[4-(4-{7-[3-(Pyrrolidine-1-sulfonyl)-phenyl]-pyrrolo[2,1-f][1,2,4]triazin-2-ylamino}-phenyl)-piperidin-1-yl]-acetamide] | – | – | 6.00 to 7.00 | > 7.00
8 | COc1cc(N2CCCN(C3CCN(C)CC3)CC2)ccc1Nc1ncc2ccc(-c3ccccc3N(C)S(C)(=O)=O)n2n1 [Example 790, N-[2-(2-{2-Methoxy-4-[4-(1-methyl-piperidin-4-yl)-[1,4]diazepan-1-yl]-phenylamino}-pyrrolo[2,1-f][1,2,4]triazin-7-yl)-phenyl]-N-methyl-methanesulfonamide] | – | – | > 7.00 | 6.00 to 7.00
9 | COc1ccc(CNc2ncc3ccc(-c4ccccc4OC)n3n2)cc1OC [Example 442, (3,4-Dimethoxy-benzyl)-[7-(2-methoxy-phenyl)-pyrrolo[2,1-f][1,2,4]triazin-2-yl]-amine] | < 5.00 | 5.00 to 6.00 | – | –
10 | CN1CCN(C(=O)C(F)(F)c2ccc(Nc3ncc4ccc(-c5cccc(S(=O)(=O)NC(C)(C)C)c5)n4n3)cc2)CC1 [Example 1515, N-tert-Butyl-3-(2-{4-[1,1-difluoro-2-(4-methyl-piperazin-1-yl)-2-oxo-ethyl]-phenylamino}-pyrrolo[2,1-f][1,2,4]triazin-7-yl)-benzenesulfonamide] | 6.00 to 7.00 | > 7.00 | – | –
11 | COc1cc(C2CCN(CC(N)=O)CC2)ccc1Nc1ncc2ccc(-c3cccc4c3OCC4)n2n1 [Example 703, 2-(4-{4-[7-(2,3-Dihydro-benzofuran-7-yl)-pyrrolo[2,1-f][1,2,4]triazin-2-ylamino]-3-methoxy-phenyl}-piperidin-1-yl)-acetamide] | – | – | > 7.00 | 6.00 to 7.00
12 | COc1ccccc1-c1ccc2cnc(Nc3ccc(C4CCN(CC(N)=O)CC4)c(C)c3)nn12 [Example 935, 2-(4-{4-[7-(2-Methoxy-phenyl)-pyrrolo[2,1-f][1,2,4]triazin-2-ylamino]-2-methyl-phenyl}-piperidin-1-yl)-acetamide] | – | – | > 7.00 | > 7.00
13 | CC1(C)CCC(=O)Nc2cc(Nc3ncc4ccc(-c5ccc(S(C)(=O)=O)cc5)n4n3)ccc21 [Example 92, 8-[7-(4-Methanesulfonyl-phenyl)-pyrrolo[2,1-f][1,2,4]triazin-2-ylamino]-5,5-dimethyl-1,3,4,5-tetrahydro-benzo[b]azepin-2-one] | 5.00 to 6.00 | > 7.00 | – | –
14 | CC(C)(C)NS(=O)(=O)c1cccc(-c2ccc3cnc(Nc4ccc5c(c4)N(S(C)(=O)=O)CCC5)nn23)c1 [Example 1060, N-tert-Butyl-3-[2-(1-methanesulfonyl-1,2,3,4-tetrahydro-quinolin-7-ylamino)-pyrrolo[2,1-f][1,2,4]triazin-7-yl]-benzenesulfonamide] | – | – | 5.00 to 6.00 | > 7.00
15 | CN1CCN(c2ccc(Nc3ncc4ccc(-c5cccc(CO)c5)n4n3)cc2)CC1 [Example 1498, (3-{2-[4-(4-Methyl-piperazin-1-yl)-phenylamino]-pyrrolo[2,1-f][1,2,4]triazin-7-yl}-phenyl)-methanol] | > 7.00 | > 7.00 | – | –
16 | CN1C2CCC1CC(c1ccc(Nc3ncc4ccc(-c5cccc(S(=O)(=O)NC(C)(C)C)c5)n4n3)cc1)C2 (stereo not shown) [Example 943, N-tert-Butyl-3-{2-[4-(8-methyl-8-aza-bicyclo[3.2.1]oct-3-yl)-phenylamino]-pyrrolo[2,1-f][1,2,4]triazin-7-yl}-benzenesulfonamide] | – | – | 6.00 to 7.00 | > 7.00
17 | CN1CCOCc2cc(Nc3ncc4ccc(-c5ccc(S(C)(=O)=O)cc5)n4n3)ccc21 [Example 617, [7-(4-Methanesulfonyl-phenyl)-pyrrolo[2,1-f][1,2,4]triazin-2-yl]-(1-methyl-1,2,3,5-tetrahydro-benzo[e][1,4]oxazepin-7-yl)-amine] | – | – | 5.00 to 6.00 | > 7.00
18 | CN1CCN(c2ccc(Nc3ncc4ccc(-c5ccccc5OCC#N)n4n3)cc2)CC1 [Example 1141, (2-{2-[4-(4-Methyl-piperazin-1-yl)-phenylamino]-pyrrolo[2,1-f][1,2,4]triazin-7-yl}-phenoxy)-acetonitrile] | – | – | > 7.00 | > 7.00
19 | COc1ccccc1-c1ccn2nc(NCc3cccc(N(C)C)c3)ncc12 [Example 721, (3-Dimethylamino-benzyl)-[5-(2-methoxy-phenyl)-pyrrolo[2,1-f][1,2,4]triazin-2-yl]-amine] | – | – | < 5.00 | 5.00 to 6.00
20 | COc1ccccc1-c1ccc2cnc(Nc3ccc(C4CCN(C)CC4)cc3)nn12 [Example 1132, [7-(2-Methoxy-phenyl)-pyrrolo[2,1-f][1,2,4]triazin-2-yl]-[4-(1-methyl-piperidin-4-yl)-phenyl]-amine] | – | – | > 7.00 | > 7.00
21 | O=C(c1cccc(Nc2ncc3ccc(-c4cccc(Cl)c4)n3n2)c1)N1CCOCC1 [Example 329, {3-[7-(3-Chloro-phenyl)-pyrrolo[2,1-f][1,2,4]triazin-2-ylamino]-phenyl}-morpholin-4-yl-methanone] | 6.00 to 7.00 | > 7.00 | – | –
22 | C[C@@H](O)CN1CCN(c2ccc(Nc3ncc4ccc(-c5cccc(S(=O)(=O)NC(C)(C)C)c5)n4n3)cc2)CC1 [Example 426, N-tert-Butyl-3-(2-{4-[4-((R)-2-hydroxy-propyl)-piperazin-1-yl]-phenylamino}-pyrrolo[2,1-f][1,2,4]triazin-7-yl)-benzenesulfonamide] | 6.00 to 7.00 | > 7.00 | – | –
23 | CS(=O)(=O)c1ccc(-c2ccc3cnc(Nc4ccc(C5(C#N)CCN(CC(N)=O)CC5)cc4)nn23)cc1 [Example 1547, 2-(4-Cyano-4-{4-[7-(4-methanesulfonyl-phenyl)-pyrrolo[2,1-f][1,2,4]triazin-2-ylamino]-phenyl}-piperidin-1-yl)-acetamide] | 5.00 to 6.00 | > 7.00 | – | –
24 | C[C@H](O)CN1CCN(c2ccc(Nc3ncc4ccc(-c5ccccc5NS(C)(=O)=O)n4n3)cc2)CC1 [Example 430, N-[2-(2-{4-[4-((S)-2-Hydroxy-propyl)-piperazin-1-yl]-phenylamino}-pyrrolo[2,1-f][1,2,4]triazin-7-yl)-phenyl]-methanesulfonamide] | 6.00 to 7.00 | > 7.00 | – | –
25 | COc1ccccc1-c1ccc2cnc(Nc3ccc4c(c3)OCO4)nn12 [Example 149, 1,3-Benzodioxol-5-yl-[7-(2-methoxy-phenyl)-pyrrolo[2,1-f][1,2,4]triazin-2-yl]-amine] | 6.00 to 7.00 | > 7.00 | – | –
26 | COc1cc(Nc2ncc3ccc(-c4cccc(Cl)c4)n3n2)ccc1N1CCN(C)CC1 [Example 64, [7-(3-Chloro-phenyl)-pyrrolo[2,1-f][1,2,4]triazin-2-yl]-[3-methoxy-4-(4-methyl-piperazin-1-yl)-phenyl]-amine] | > 7.00 | > 7.00 | – | –
27 | COc1cc2c(cc1Nc1ncc3ccc(-c4cccc5c4OCC5)n3n1)CCN(CC(N)=O)CC2 [Example 708, 2-{7-[7-(2,3-Dihydro-benzofuran-7-yl)-pyrrolo[2,1-f][1,2,4]triazin-2-ylamino]-8-methoxy-1,2,4,5-tetrahydro-3-benzazepin-3-yl}-acetamide] | – | – | > 7.00 | 6.00 to 7.00
28 | CCN1C(=O)CCC(C)(C)c2ccc(Nc3ncc4ccc(-c5cnn(C)c5)n4n3)cc21 [Example 1379, 1-Ethyl-5,5-dimethyl-8-[7-(1-methyl-1H-pyrazol-4-yl)-pyrrolo[2,1-f][1,2,4]triazin-2-ylamino]-1,3,4,5-tetrahydro-benzo[b]azepin-2-one] | 6.00 to 7.00 | > 7.00 | – | –
29 | COc1cc(N2CCC(N3CCN(C)CC3)CC2)ccc1Nc1ncc2ccc(-c3cccnc3)n2n1 [Example 241] | > 7.00 | 6.00 to 7.00 | – | –
